In US20100093824A1 (priority 2006, published 2010):
pIC50: −log10 of the molar value. Like-named read-outs stand apart in the source and are kept apart here. Non-standard residues stand in square brackets, D forms with d. Residues, ends and D or L forms follow the SMILES beside them. Nle = CCCC[C@H](N)C(=O)O

Legend:
[1] = system: L protein, the Respiratory Syncytial virus polymerase; assay type: cell-based, RSV, strain A2; details: Hep-2 cells, 17AAG 5 μM
poliovirus [2] = system: poliovirus; parameters: species or system cPVR transgenic mice; details: mouse, in vivo
[3] = mouse, in vivo, ip
capsid precursor P1 = assay type: cell-based, poliovirus
poliovirus [4] = assay: microbe, parasite or virus in culture; assay type: cell-based, Poliovirus Mahoney type 1 strain; details: Enterovirus C, HeLa S3, 7 h, read-out: IC50 of inhibition of poliovirus replication
poliovirus [5] = assay: microbe, parasite or virus in culture; assay type: cell-based, Poliovirus Mahoney type 1 strain; details: Enterovirus C, Fibroblast, read-out: inhibition of poliovirus replication
poliovirus [6] = assay type: cell-based
poliovirus [7] = assay: microbe, parasite or virus in culture; assay type: cell-based, Poliovirus Mahoney type 1 strain; details: Enterovirus C, HeLa S3, read-out: inhibition of virus production in vRNA transfected cells

C=CCNC1=C2C[C@@H](C)CC(OC)[C@H](O)[C@@H](C)/C=C(\C)C(OC(N)=O)C(OC)/C=C\C=C(/C)C(=O)NC(=CC1=O)C2=O (stereo partly shown) [17AAG, 17-Allylamino-17-demethoxygeldanamycin]
effect on RSV L protein [1]: causes degradation of L protein
viral load in the CNS (poliovirus [2]): dramatically reduced the viral load
mice with virus decreased to undetectable levels (poliovirus [2]; 2.5 mg/kg): 4 of 8
mice with virus decreased to undetectable levels (poliovirus [2]; 25 mg/kg): 5 of 8
apparent toxicity to the treated animal [3]: did not result in any apparent toxicity

CCCC[C@@H](C=O)NC(=O)[C@H](CC(C)C)NC(=O)[C@H](CC(C)C)NC(C)=O [ALLN, N-Acetyl-L-leucyl-L-leucyl-L-norleucinal] (Ac-Leu-Leu-[Nle]-aldehyde)
protection of P1 from GA-induced degradation (capsid precursor P1): protected P1 from degradation

COC1=C2C[C@@H](C)C[C@H](OC)[C@H](O)[C@@H](C)/C=C(\C)[C@H](OC(N)=O)[C@@H](OC)/C=C\C=C(/C)C(=O)NC(=CC1=O)C2=O [GA, Geldanamycin]
pIC50 (poliovirus [4]): 6.96
inhibition at 0.1 µM (poliovirus [5]): > 99%
reduction in virus production (poliovirus [6]): ~50%
time in which P1 was readily degraded after treatment (capsid precursor P1): ≤ 3 h
inhibition at 2 µM (poliovirus [7]): 95%

CC(=O)N[C@@H](CSC(=O)[C@]1([C@@H](O)C(C)C)NC(=O)[C@H](C)[C@@H]1O)C(=O)O [lactacystin, Lactacystin]
protection of P1 from GA-induced degradation (capsid precursor P1): protected P1 from degradation

trichostatin A [TSA]
maximal reduction in virus production (poliovirus [6]): 30%
